Measured values reported in the supplement of paper PMC4862054.

Experiments:
Settings in all cases: incubation time: 72 h
[1] = test system: CAL-148; experiment: normalised viability (% of control), CellTiter-Blue; higher = more viable cells (about 100 = DMSO control)
Procedure: (§1)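 DSRT, CellTiter-Blue viability, 72 h incubation. Signal is normalised to DMSO and benzethonium chloride controls. Value is the normalised response at dose 6.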

[2] = test system: CAL-51; experiment: as above
Procedure: as §1

[3] = test system: CAL-85-1; experiment: as above
Procedure: as §1

[4] = test system: DU-4475; experiment: as above
Procedure: as §1

[5] = test system: HDQ-P1; experiment: as above
Procedure: as §1

[6] = test system: MDA-MB-453; experiment: as above
Procedure: as §1

[7] = test system: BT-474; experiment: normalised response (% of control), CellTox Green; higher = less cell death (100 = DMSO, 0 = benzethonium chloride kill control)
Summary of the method: (§2)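 Plates were normalised with 0.1 % DMSO as 100 and a positive kill control as 0. Breast cancer cell lines in 20 µl suspension had been seeded into 384-well plates with compound at 5 concentrations in 10-fold steps over a compound-specific 10,000-fold range, incubated 72 h, and read for CellTox Green fluorescence (485/520 nm) followed by CellTiter-Glo luminescence. Each value is the normalised signal at a single concentration.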

[8] = test system: BT-549; experiment: as above
Summary of the method: as §2

[9] = test system: CAL-120; experiment: as above
Summary of the method: as §2

[10] = test system: CAL-148; experiment: as above
Summary of the method: as §2

[11] = test system: CAL-51; experiment: as above
Summary of the method: as §2

[12] = test system: CAL-85-1; experiment: as above
Summary of the method: as §2

[13] = test system: DU-4475; experiment: as above
Summary of the method: as §2

[14] = test system: HCC1143; experiment: as above
Summary of the method: as §2

[15] = test system: HCC1599; experiment: as above
Summary of the method: as §2

[16] = test system: HCC1937; experiment: as above
Summary of the method: as §2

[17] = test system: HDQ-P1; experiment: as above
Summary of the method: as §2

[18] = test system: Hs578T; experiment: as above
Summary of the method: as §2

[19] = test system: MCF-10A; experiment: as above
Summary of the method: as §2

[20] = test system: MDA-MB-231; experiment: as above
Summary of the method: as §2

[21] = test system: MDA-MB-436; experiment: as above
Summary of the method: as §2

[22] = test system: MDA-MB-453; experiment: as above
Summary of the method: as §2

[23] = test system: MDA-MB-468; experiment: as above
Summary of the method: as §2

[24] = test system: MFM-223; experiment: as above
Summary of the method: as §2

[25] = test system: BT-474; experiment: normalised response (% of control), CellTiter-Glo; higher = more viable cells (100 = DMSO, 0 = benzethonium chloride kill control)
Procedure: (§3)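 DSRT, 72 h incubation, CellTox Green / CellTiter-Glo readout. Signal is normalised to DMSO and benzethonium chloride controls. Value is the normalised response at the highest dose.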

[26] = test system: BT-549; experiment: as above
Procedure: as §3

[27] = test system: CAL-120; experiment: as above
Procedure: as §3

[28] = test system: CAL-148; experiment: as above
Procedure: as §3

[29] = test system: CAL-51; experiment: as above
Procedure: as §3

[30] = test system: CAL-85-1; experiment: as above
Procedure: as §3

[31] = test system: DU-4475; experiment: as above
Procedure: as §3

[32] = test system: HCC1143; experiment: as above
Procedure: as §3

[33] = test system: HCC1599; experiment: as above
Procedure: as §3

[34] = test system: HCC1937; experiment: as above
Procedure: as §3

[35] = test system: HDQ-P1; experiment: as above
Procedure: as §3

[36] = test system: Hs578T; experiment: as above
Procedure: as §3

[37] = test system: MCF-10A; experiment: as above
Procedure: as §3

[38] = test system: MDA-MB-231; experiment: as above
Procedure: as §3

[39] = test system: MDA-MB-436; experiment: as above
Procedure: as §3

[40] = test system: MDA-MB-453; experiment: as above
Procedure: as §3

[41] = test system: MDA-MB-468; experiment: as above
Procedure: as §3

[42] = test system: MFM-223; experiment: as above
Procedure: as §3

[43] = test system: SK-BR-3; experiment: as above
Procedure: as §3

Which normalised viability [1] does the source give for `Oc1ncnc2[nH]ncc12` [Allopurinol] (300 nM) here?
Its normalised viability is 113%.

And the normalised viability [2]?
The normalised viability was 93.3%.

And the normalised viability [3]?
The normalised viability was 104%.

What about the normalised viability [4] of the same molecule?
Its normalised viability is 91.6%.

And the normalised viability [5]?
Its normalised viability is 73.6%.

What about the normalised viability [6] of the same molecule?
Its normalised viability is 101%.

With `CC1=C2C[C@H]3[C@@H](CC=C4C[C@@H](O)CC[C@@]43C)[C@@H]2CC[C@]12O[C@@H]1C[C@H](C)CN[C@H]1[C@H]2C` [Cyclopamine] (300 nM) as the molecule, how does the normalised viability [1] read?
The normalised viability was 115%.

What about the normalised viability [2] of the same molecule?
The normalised viability was 115%.

And the normalised viability [3]?
Its normalised viability is 106%.

And the normalised viability [4]?
The normalised viability was 105%.

And the normalised viability [5]?
The normalised viability was 79.2%.

What about the normalised viability [6] of the same molecule?
The normalised viability was 113%.

Which results are given for `C[C@]12CC[C@@H]3c4ccc(OC(=O)N(CCCl)CCCl)cc4CC[C@H]3[C@@H]1CC[C@@H]2O` [Estramustine] (29.7 nM)?
normalised viability [1]: 116%; normalised viability [2]: 79.1%; normalised viability [3]: 97.2%; normalised viability [4]: 71.4%; normalised viability [5]: 95.3%; normalised viability [6]: 97.2%

How did the normalised viability [1] turn out when `CC1(C)CNc2cc(NC(=O)c3cccnc3NCc3ccncc3)ccc21` [Motesanib] (300 nM) was run?
Its normalised viability is 98.8%.

What about the normalised viability [2] of the same molecule?
Its normalised viability is 103%.

And the normalised viability [3]?
The normalised viability was 78.1%.

What about the normalised viability [4] of the same molecule?
Its normalised viability is 95.9%.

What about the normalised viability [5] of the same molecule?
The normalised viability was 62.8%.

What about the normalised viability [6] of the same molecule?
Its normalised viability is 86.5%.

For `CC[C@@H]1C(=O)OC[C@@H]1Cc1cncn1C` [Pilocarpine] (1200 nM), which normalised viability [1] is on record?
Its normalised viability is 101%.

What about the normalised viability [2] of the same molecule?
Its normalised viability is 97.6%.

What about the normalised viability [3] of the same molecule?
The normalised viability was 100%.

And the normalised viability [4]?
Its normalised viability is 88.2%.

What about the normalised viability [5] of the same molecule?
Its normalised viability is 113%.

What about the normalised viability [6] of the same molecule?
Its normalised viability is 105%.

For `Cn1cnc2c(F)c(Nc3ccc(Br)cc3Cl)c(C(=O)NOCCO)cc21` [Selumetinib] (300 nM), which normalised viability [1] is on record?
Its normalised viability is 89.6%.

And the normalised viability [2]?
Its normalised viability is 95.1%.

What about the normalised viability [3] of the same molecule?
Its normalised viability is 83.4%.

And the normalised viability [4]?
The normalised viability was 7.86%.

What about the normalised viability [5] of the same molecule?
Its normalised viability is 41.9%.

And the normalised viability [6]?
Its normalised viability is 121%.

Which results are given for `COc1cc(F)c(F)c(Nc2ccc(I)cc2F)c1NS(=O)(=O)C1(C[C@H](O)CO)CC1` [Refametinib] (10000 nM)?
normalised response [7]: 99.6%; normalised response [8]: 101%; normalised response [9]: 92%; normalised response [10]: 75.8%; normalised response [11]: 101%; normalised response [12]: -0.94%; normalised response [13]: 69.6%; normalised response [14]: 106%; normalised response [15]: 107%; normalised response [16]: 88.4%; normalised response [17]: 82.1%; normalised response [18]: 97.8%; normalised response [19]: 65.8%; normalised response [20]: 64.1%; normalised response [21]: 95.6%; normalised response [22]: 102%; normalised response [23]: -53.7%; normalised response [24]: 97.9%; normalised response [25]: 47.8%; normalised response [26]: 65.7%; normalised response [27]: 55.7%; normalised response [28]: 65.8%; normalised response [29]: 92.5%; normalised response [30]: 23.8%; normalised response [31]: 0.11%; normalised response [32]: 67.3%; normalised response [33]: 102%; normalised response [34]: 58.5%; normalised response [35]: 43.6%; normalised response [36]: 55.1%; normalised response [37]: 25%; normalised response [38]: 43.7%; normalised response [39]: 54.8%; normalised response [40]: 82.7%; normalised response [41]: 45.2%; normalised response [42]: 41%; normalised response [43]: 77.2%
